Assay results taken from patent US20120283099A1, “CONTROLLING PLANTHOPPERS” (priority 2011, published 2012).
Where “and” joins values, the source holds several entries; their conditions need not be identical. Identical values can stand only once.

Test system: brown planthoppers, Nilaparvata lugens
Experiment: Field efficacy on brown planthopper in transplanted rice (small-plot trials A-D)
Format: in vivo
Conditions: Sulfoxaflor 50 g/ha, Buprofezin 100 g/ha, mixture 50 + 100 g/ha
Method: Applications were made to transplanted rice, Oryza sativa, using small-plot efficacy methods. Chemicals were diluted in water and all treatments were applied using a backpack sprayer calibrated to deliver 500 liters of spray solution per hectare. Experimental plots measured 5 by 10 meters and each treatment was replicated three times in each trial. At the specified intervals after treatment, brown planthoppers, Nilaparvata lugens, were counted in 10 randomly selected hills per plot. Data were transformed to percent control relative to the untreated plots, then subjected to analysis of variance, and means were separated using Tukey's HSD (p=0.1). Expected control was calculated using the method of Colby and compared to observed control. See the Table Section for the results of the Field Trials.

[1] = Trial A, 1 DAT, relative to untreated plots

Compound | % Control [1] | % Control (Trial A, 3 DAT) | % Control (Trial A, 7 DAT) | % Control (Trial A, 10 DAT) | % Control (Trial A, 15 DAT) | % Control (Trial B, 1 DAT) | % Control (Trial B, 3 DAT) | % Control (Trial B, 7 DAT) | % Control (Trial B, 10 DAT) | % Control (Trial B, 15 DAT) | % Control (Trial C, 1 DAT) | % Control (Trial C, 3 DAT) | % Control (Trial C, 7 DAT) | % Control (Trial C, 10 DAT) | % Control (Trial C, 15 DAT) | % Control (Trial D, 1 DAT) | % Control (Trial D, 7 DAT) | % Control (Trial D, 10 DAT) | % Control (Trial D, 15 DAT)
CC(C)N1C(=O)N(c2ccccc2)CS/C1=N\C(C)(C)C [Buprofezin] | 34.9 a % and 34.9% | 72.4 b % and 72.4% | 72.4 b % and 72.4% | 49.4 b % and 49.4% | 49.0 b % and 49.0% | 24.5 a % and 24.5% | 73.0 b % and 73.0% | 80.2 b % and 80.2% | 63.2 b % and 63.2% | 67.7 b % and 67.7% | 31.2 ab % and 31.2% | 63.2 b % and 63.2% | 61.2 b % and 61.2% | 31.2 b % and 31.2% | 47.8 b % and 47.8% | 78.2 b % and 78.2% | 66.0 b % and 66.0% | 34.0 c % and 34.0% | 47.6 b % and 47.6%
CC(c1ccc(C(F)(F)F)nc1)S(C)(=O)=NC#N (centres unmarked) [Sulfoxaflor] | 11.2 b % and 11.2% | 43.5 c % and 43.5% | 32.8 c % and 32.8% | 6.8 c % and 6.9% | 19.3 c % and 19.3% | 29.4 a % and 29.4% | 63.6 b % and 63.6% | 62.8 c % and 62.8% | 48.8 b % and 48.8% | 50.3 c % and 50.3% | 13.5 bc % and 13.5% | 42.4 c % and 42.2% | 57.9 b % and 57.9% | 9.6 b % and 9.6% | 30.1 c % and 30.1% | 71.4 b % and 71.4% | 72.9 b % and 72.9% | 57.5 b % and 57.5% | 51.9 b % and 51.9%
